Laboratory results reported in US20260042764A1, “COMPOSITIONS AND METHODS FOR INHIBITION OF KRAS” (TheRas, Inc., priority 2022, published 2026).

Key:
GP2d cells (KRAS G12D) = test: Cell-based pERK HTRF assay in GP2d cell (Biological Example 2); settings: GP2d, GP2d (KRAS G12D) cells
Procedure, shortened: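 HTRF read-out of pERK (excitation 320 nm, emission 615 nm) after lysates sat 4–24 h at room temperature with Eu cryptate and d2 antibodies.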

[1] = target: T1, Avi-KRAS G12D (2-169) GTP/RAF1 RBD-3xFLAG (51-131) (Homo sapiens, UniProt P01116, G12D); test: Raf1-KRAS G12D-GTP disruption HTRF assay (Biological Example 3); assay type: binding; settings: KRAS G12D, GTP-loaded
T1 construct: Avi-KRAS G12D (2-169)
T1 sequence (P01116 2-169 isoform P01116-2 G12D): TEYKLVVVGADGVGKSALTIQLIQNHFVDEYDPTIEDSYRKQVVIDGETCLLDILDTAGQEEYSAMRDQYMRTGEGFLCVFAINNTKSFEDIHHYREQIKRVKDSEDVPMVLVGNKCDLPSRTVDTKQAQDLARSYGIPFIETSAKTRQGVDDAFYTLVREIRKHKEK
Procedure, shortened: (§1)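 An HTRF assay measured disruption of 50 nM Avi-KRAS (2-169)-GTP (WT, G12C, G12D or G12V) bound to RAF1 RBD-3xFLAG (51-131). Buffer was Tris pH 7.5 with 5 mM MgCl2 and 10% DMSO. Compounds (30–0.005 μM, 3-fold, 10 points) were incubated 1 h at room temperature, and activity is given as % of DMSO.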

[2] = target: T2, Avi-KRAS G12C (2-169) GTP/RAF1 RBD-3xFLAG (51-131) (Homo sapiens, UniProt P01116, G12C); test: Raf1-KRAS G12C-GTP disruption HTRF assay (Biological Example 3); assay type: binding; settings: KRAS G12C, GTP-loaded
T2 construct: Avi-KRAS G12C (2-169)
T2 sequence (P01116 2-169 isoform P01116-2 G12C): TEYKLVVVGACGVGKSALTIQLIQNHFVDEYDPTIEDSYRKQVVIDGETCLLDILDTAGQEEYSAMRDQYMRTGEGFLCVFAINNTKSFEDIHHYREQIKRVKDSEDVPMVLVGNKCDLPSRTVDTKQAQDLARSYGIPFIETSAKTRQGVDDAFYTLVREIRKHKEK
Procedure, shortened: as §1

[3] = target: T3, Avi-KRAS G12V (2-169) GTP/RAF1 RBD-3xFLAG (51-131) (Homo sapiens, UniProt P01116, G12V); test: Raf1-KRAS G12V-GTP disruption HTRF assay (Biological Example 3); assay type: binding; settings: KRAS G12V, GTP-loaded
T3 construct: Avi-KRAS G12V (2-169)
T3 sequence (P01116 2-169 isoform P01116-2 G12V): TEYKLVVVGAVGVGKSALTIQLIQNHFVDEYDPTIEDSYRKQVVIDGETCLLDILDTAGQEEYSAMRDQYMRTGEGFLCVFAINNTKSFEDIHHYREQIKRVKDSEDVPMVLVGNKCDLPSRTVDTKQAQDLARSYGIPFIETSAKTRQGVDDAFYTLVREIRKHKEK
Procedure, shortened: as §1

[4] = target: T4, Avi-KRAS WT (2-169) GTP/RAF1 RBD-3xFLAG (51-131) (Homo sapiens, UniProt P01116); test: Raf1-KRAS WT-GTP disruption HTRF assay (Biological Example 3); assay type: binding; settings: KRAS WT, GTP-loaded
T4 construct: Avi-KRAS WT (2-169)
T4 sequence (P01116 2-169 isoform P01116-2): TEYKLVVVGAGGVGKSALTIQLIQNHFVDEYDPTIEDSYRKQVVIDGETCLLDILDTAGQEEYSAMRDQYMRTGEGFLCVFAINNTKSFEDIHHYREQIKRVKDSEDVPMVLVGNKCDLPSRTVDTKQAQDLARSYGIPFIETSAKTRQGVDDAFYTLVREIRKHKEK
Procedure, shortened: as §1

SW620 cells (KRAS G12V) = test: Cell-based pERK HTRF assay in SW620 cell (Biological Example 4); settings: Homo sapiens, SW-620, SW620 (KRAS G12V) cells
Procedure, shortened: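 SW620 cells were treated for 4 h with compound in a 9-point half-log series from 1 μM top (0.25% DMSO), then lysed. Phospho-ERK was detected by HTRF with d2 and Eu cryptate antibodies after 4–24 h at room temperature, read at 615 nm emission.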

| SMILES | IC50 (GP2d cells (KRAS G12D)) | IC50 [1] | IC50 [2] | IC50 [3] | IC50 [4] | IC50 (SW620 cells (KRAS G12V)) |
| --- | --- | --- | --- | --- | --- | --- |
| CCN(c1nc(OC[C@@]23CCCN2C[C@H](F)C3)nc2c(F)c(-c3ccc(F)c4sc(N)c(C#N)c34)c(C(F)(F)F)cc12)[C@H]1CCN(C(=O)c2ncc(C)s2)C1 (atropisomer, axis not shown) [Compound 919] | < 100 nM | 100 to 1000 nM | 100 to 1000 nM | 100 to 1000 nM | 100 to 1000 nM | < 100 nM |
| CCN(c1nc(OC[C@@]23CCCN2C[C@H](F)C3)nc2c(F)c(-c3ccc(F)c4sc(N)c(C#N)c34)c(C(F)(F)F)cc12)[C@H]1CCN(C(=O)c2cccs2)C1 (atropisomer, axis not shown) [Compound 920] | < 100 nM | 100 to 1000 nM | 100 to 1000 nM | 100 to 1000 nM | 100 to 1000 nM | < 100 nM |
| CCN(c1nc(OC[C@@]23CCCN2C[C@H](F)C3)nc2c(F)c(-c3ccc(F)c4sc(N)c(C#N)c34)c(C(F)(F)F)cc12)[C@H]1CCN(C(=O)N(C)C)[C@@H]1COC (atropisomer, axis not shown) [Compound 921] | < 100 nM | 100 to 1000 nM | 100 to 1000 nM | 100 to 1000 nM | 100 to 1000 nM | < 100 nM |
| CCN(c1nc(OC[C@@]23CCCN2C[C@H](F)C3)nc2c(F)c(-c3ccc(F)c4sc(N)c(C#N)c34)c(C(F)(F)F)cc12)[C@H]1C[C@H](C)N(C(=O)[C@@H]2CCO2)C1 (atropisomer, axis not shown) [Compound 922] | < 100 nM | ≤ 100 nM | ≤ 100 nM | ≤ 100 nM | 100 to 1000 nM | < 100 nM |
| CCN(c1nc(OC[C@@]23CCCN2C[C@H](F)C3)nc2c(F)c(-c3ccc(F)c4sc(N)c(C#N)c34)c(C(F)(F)F)cc12)[C@H]1CCN(C(=O)OC)[C@@H]1COC (atropisomer, axis not shown) [Compound 923] | < 100 nM | 100 to 1000 nM | 1000 to 10000 nM | 100 to 1000 nM | 100 to 1000 nM | < 100 nM |
| CCN(c1nc(OC[C@@]23CCCN2C[C@H](F)C3)nc2c(F)c(-c3ccc(F)c4sc(N)c(C#N)c34)c(C(F)(F)F)cc12)[C@H]1CCN(C(C)=O)[C@@H]1COC (atropisomer, axis not shown) [Compound 924] | < 100 nM | 100 to 1000 nM | 100 to 1000 nM | 100 to 1000 nM | 100 to 1000 nM | < 100 nM |
| CCN(c1nc(OC[C@@]23CCCN2C[C@H](F)C3)nc2c(F)c(-c3ccc(F)c4sc(N)c(C#N)c34)c(C(F)(F)F)cc12)[C@H]1CCN(C(=O)C2CC2)[C@@H]1COC (atropisomer, axis not shown) [Compound 925] | < 100 nM | 100 to 1000 nM | 100 to 1000 nM | 100 to 1000 nM | 100 to 1000 nM | < 100 nM |
| CCN(c1nc(OC[C@@]23CCCN2C[C@H](F)C3)nc2c(F)c(-c3ccc(F)c4sc(N)c(C#N)c34)c(C(F)(F)F)cc12)[C@H]1C[C@H](C)N(C(=O)OC2COC2)C1 (atropisomer, axis not shown) [Compound 926] | < 100 nM | 100 to 1000 nM | 100 to 1000 nM | 100 to 1000 nM | 100 to 1000 nM | < 100 nM |
| CCN(c1nc(OC[C@@]23CCCN2C[C@H](F)C3)nc2c(F)c(-c3ccc(F)c4sc(N)c(C#N)c34)c(C(F)(F)F)cc12)[C@H]1CCN(C(=O)c2nccs2)C1 (atropisomer, axis not shown) [Compound 927] | < 100 nM | 100 to 1000 nM | 100 to 1000 nM | 100 to 1000 nM | 100 to 1000 nM | < 100 nM |
| CCN(c1nc(OC[C@@]23CCCN2C[C@H](F)C3)nc2c(F)c(-c3ccc(F)c4sc(N)c(C#N)c34)c(C(F)(F)F)cc12)[C@@H]1CCN(C(=O)[C@@H]2CCO2)[C@@H]1C (atropisomer, axis not shown) [Compound 931] | < 100 nM | 100 to 1000 nM | 100 to 1000 nM | 100 to 1000 nM | 100 to 1000 nM | < 100 nM |
| CN(c1nc(OC[C@@]23CCCN2C[C@H](F)C3)nc2c(F)c(-c3ccc(F)c4sc(N)c(C#N)c34)c(C(F)(F)F)cc12)[C@H]1CC(=O)N2CCC[C@H]12 (atropisomer, axis not shown) [Compound 934] | < 100 nM | 100 to 1000 nM | 100 to 1000 nM | 100 to 1000 nM | 100 to 1000 nM | < 100 nM |
| CN(Cc1cnoc1)c1nc(OC[C@@]23CCCN2C[C@H](F)C3)nc2c(F)c(-c3ccc(F)c4sc(N)c(C#N)c34)c(C(F)(F)F)cc12 (atropisomer, axis not shown) [Compound 935] | < 100 nM | 100 to 1000 nM | 100 to 1000 nM | 100 to 1000 nM | 100 to 1000 nM | < 100 nM |
| CCN(c1nc(OC[C@@]23CCCN2C[C@H](F)C3)nc2c(F)c(-c3ccc(F)c4sc(N)c(C#N)c34)c(C(F)(F)F)cc12)[C@H]1C[C@H]2CN(C(C)(C)C)C(=O)N2C1 (atropisomer, axis not shown) [Compound 936] | < 100 nM | 100 to 1000 nM | 1000 to 10000 nM | 1000 to 10000 nM | 1000 to 10000 nM | < 100 nM |
| CCN(c1nc(OC[C@@]23CCCN2C[C@H](F)C3)nc2c(F)c(-c3ccc(F)c4sc(N)c(C#N)c34)c(C(F)(F)F)cc12)[C@@H]1C=C[C@H](C(=O)N(C)C)C1 (atropisomer, axis not shown) [Compound 937] | < 100 nM | 1000 to 10000 nM | 1000 to 10000 nM | 1000 to 10000 nM | 1000 to 10000 nM | < 100 nM |
| CCN(c1nc(OC[C@@]23CCCN2C[C@H](F)C3)nc2c(F)c(-c3ccc(F)c4sc(N)c(C#N)c34)c(C(F)(F)F)cc12)[C@H]1C=C[C@@H](C(=O)N(C)C)C1 (atropisomer, axis not shown) [Compound 938] | < 100 nM | 1000 to 10000 nM | > 10000 nM | > 10000 nM | > 10000 nM | 100 to 1000 nM |
| CCN(c1nc(OC[C@@]23CCCN2C[C@H](F)C3)nc2c(F)c(-c3ccc(F)c4sc(N)c(C#N)c34)c(C(F)(F)F)cc12)[C@H]1CCN(C(=O)c2ncc(Cl)s2)C1 (atropisomer, axis not shown) [Compound 939] | < 100 nM | 100 to 1000 nM | 1000 to 10000 nM | 1000 to 10000 nM | 1000 to 10000 nM | < 100 nM |
| CCN(c1nc(OC[C@@]23CCCN2C[C@H](F)C3)nc2c(F)c(-c3ccc(F)c4sc(N)c(C#N)c34)c(C(F)(F)F)cc12)[C@H]1C[C@H]2CN(CC(F)F)C(=O)N2C1 (atropisomer, axis not shown) [Compound 940] | < 100 nM | 100 to 1000 nM | 100 to 1000 nM | 100 to 1000 nM | 100 to 1000 nM | < 100 nM |
| CCN(c1nc(OC[C@@]23CCCN2C[C@H](F)C3)nc2c(F)c(-c3ccc(F)c4sc(N)c(C#N)c34)c(C(F)(F)F)cc12)[C@@H]1CCN2C(=O)OC[C@H]12 (atropisomer, axis not shown) [Compound 941] | < 100 nM | 1000 to 10000 nM | 1000 to 10000 nM | > 10000 nM | 1000 to 10000 nM | < 100 nM |
